Assay results as given in patent US8216614B2 (The Board of Regents of the University of Texas Systems, priority 2005, dated 2012).
Read-outs that look alike come from different tables or passages of the source.

Tests used:
[1] = cited from earlier work; for bone mineral density: early postmenopausal women, Ruml et al., 1999
[2] = Metabolic study on preventing bone loss: serum calcium, parathyroid hormone, bone turnover markers; type: in vivo, human; settings: for decline in markers of bone resorption (urinary hydroxyproline, urinary N-telopeptide, serum type 1 collagen C-telopeptide): change from placebo phase; for serum calcium / serum parathyroid hormone: last two days of two-week phase
Method: During the last two days of each two-week phase, serum and 24-hour urine samples were collected for assessment of calcium metabolism, alkali load, and bone turnover markers.
Markers of bone turnover. The effect of treatment on bone resorption (destruction) was evaluated from urinary hydroxyproline, urinary N-telopeptide, and serum type 1 collagen C-telopeptide. These bone-derived substances are called markers of bone resorption, since they are elevated in states of high bone destruction.

[3] = Metabolic study on prevention of kidney stone formation: alkali load, urinary stone risk factors, urinary saturation; type: in vivo, human; settings: two-week phase, 24-hour urine; for urinary ammonium / net gastrointestinal absorption of alkali: change from placebo phase; for net gastrointestinal absorption of alkali: postmenopausal women, constant diet
From the text: A total of eighteen postmenopausal women without kidney stones underwent four phases of study chosen in random order while they were kept on a constant diet in a metabolic ward. […] During last two days of each phase, urine was collected in 24-hour pools for biochemistry and stone risk factors.
Provision of alkali load. […] If an alkali load is delivered, the net gastrointestinal absorption of alkali (calculated from urinary electrolytes) increases and urinary ammonium decreases (as a normal response of kidneys to alkali).

[4] = cited from earlier work

Row | SMILES | bone mineral density [1] | decline in markers of bone resorption (urinary hydroxyproline, urinary N-telopeptide, serum type 1 collagen C-telopeptide) [2] | serum calcium [2] | serum parathyroid hormone [2] | urinary ammonium [3] | net gastrointestinal absorption of alkali [3] | urinary calcium [3] | urinary citrate [3] | urinary oxalate [3] | urinary pH [3] | urinary saturation of calcium oxalate [3] | urinary citrate ([1]; calcium citrate supplementation, literature) | bone density ([4]; Pak et al., 2001) | calcium loss into urine ([4]; Sakhaee et al., 1991) | urinary citrate ([4]; literature)
1 | O=C([O-])[O-].[Ca+2] [calcium carbonate] | only partially effective |  |  |  |  |  |  |  |  |  |  |  |  |  | 
2 | O=C([O-])CC(O)(CC(=O)[O-])C(=O)[O-].O=C([O-])CC(O)(CC(=O)[O-])C(=O)[O-].[Ca+2].[Ca+2].[Ca+2] [calcium citrate] | prevent, though not increase | intermediate | increased slightly | significantly decreased | slightly but significantly decreased | marginally increased | increased | increased in the same direction | decreased significantly | increased marginally | increased marginally | modestly increases |  |  | 
3 | O=C([O-])CC(O)(CC(=O)[O-])C(=O)[O-].[K+].[K+].[K+] [potassium citrate] |  | least prominent | did not change | did not change | reduced | significantly and substantially increased | decreased | increased in the same direction | unaffected | significantly and substantially rose | declined |  | increase bone density | prevent calcium loss into urine | effective in increasing urinary citrate
